Source: PubChem BioAssay (NCI)
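The compound was tested at five concentrations on cells cultured in 96-well plates, with a 48-hour exposure period. Here, GI50 denotes the concentration required for 50% inhibition of growth. The concentration for full growth arrest is given as TGI.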

Legend:
Experiment in all cases: inhibition of tumour cell growth, NCI panel, 48 h
NCI-H460 lung = system: NCI-H460 lung
OVCAR-5 ovarian = system: OVCAR-5 ovarian
KM12 colon = system: KM12 colon
COLO 205 colon = system: COLO 205 colon
MOLT-4 leukemia = system: MOLT-4 leukemia
MDA-MB-435 = system: MDA-MB-435
SNB-75 CNS = system: SNB-75 CNS
HCC-2998 colon = system: HCC-2998 colon
MCF7 breast = system: MCF7 breast
MALME-3M melanoma = system: MALME-3M melanoma
OVCAR-4 ovarian = system: OVCAR-4 ovarian
NCI/ADR-RES ovarian = system: NCI/ADR-RES ovarian
NCI-H23 lung = system: NCI-H23 lung
SF-295 CNS = system: SF-295 CNS
BT-549 breast = system: BT-549 breast
K-562 leukemia = system: K-562 leukemia
HOP-92 NSCLC = system: HOP-92 NSCLC
M14 melanoma = system: M14 melanoma
A549 NSCLC = system: A549 NSCLC
786-0 renal = system: 786-0 renal
A498 renal = system: A498 renal
MDA-MB-231 breast = system: MDA-MB-231 breast
HOP-62 NSCLC = system: HOP-62 NSCLC
SF-539 CNS = system: SF-539 CNS
TK-10 renal = system: TK-10 renal
PC-3 prostate = system: PC-3 prostate
OVCAR-8 ovarian = system: OVCAR-8 ovarian
SR leukemia = system: SR leukemia
HCT-15 colon = system: HCT-15 colon
CAKI-1 renal = system: CAKI-1 renal
CCRF-CEM leukemia = system: CCRF-CEM leukemia
SF-268 CNS = system: SF-268 CNS
SK-MEL-5 melanoma = system: SK-MEL-5 melanoma
HL-60(TB) leukemia = system: HL-60(TB) leukemia
IGROV1 ovarian = system: IGROV1 ovarian
EKVX NSCLC = system: EKVX NSCLC
LOX IMVI melanoma = system: LOX IMVI melanoma
SK-MEL-2 melanoma = system: SK-MEL-2 melanoma
UACC-62 melanoma = system: UACC-62 melanoma
UO-31 renal = system: UO-31 renal
OVCAR-3 ovarian = system: OVCAR-3 ovarian
ACHN renal = system: ACHN renal
NCI-H522 lung = system: NCI-H522 lung
HCT-116 colon = system: HCT-116 colon
NCI-H226 lung = system: NCI-H226 lung
UACC-257 melanoma = system: UACC-257 melanoma
SNB-19 CNS = system: SNB-19 CNS
RPMI-8226 leukemia = system: RPMI-8226 leukemia
T-47D breast = system: T-47D breast
HT29 colon = system: HT29 colon
SN12C renal = system: SN12C renal
DU-145 prostate = system: DU-145 prostate
U251 CNS = system: U251 CNS
SK-OV-3 ovarian = system: SK-OV-3 ovarian

For `COc1cc(C(=O)/C=C/c2c(-c3cccs3)nc3sc(C)cn23)cc(OC)c1OC`, the GI50 (NCI-H460 lung) was 1.87 µM, the TGI (NCI-H460 lung) was 5.3 µM and the GI50 (OVCAR-5 ovarian) was 82 µM. The TGI (OVCAR-5 ovarian) was over 100 µM, the GI50 (KM12 colon) was 2.83 µM and the TGI (KM12 colon) was over 100 µM. It also gave a GI50 (COLO 205 colon) of 4.01 µM, a TGI (COLO 205 colon) of over 100 µM and a GI50 (MOLT-4 leukemia) of 1.27 µM. The TGI (MOLT-4 leukemia) was 6.62 µM, the GI50 (MDA-MB-435) was 2.68 µM and the TGI (MDA-MB-435) was 31.6 µM. It also gave a GI50 (SNB-75 CNS) of 2.49 µM, a TGI (SNB-75 CNS) of 6.93 µM and a GI50 (HCC-2998 colon) of 3.87 µM. The TGI (HCC-2998 colon) was 12.4 µM, the GI50 (MCF7 breast) was 2.35 µM and the TGI (MCF7 breast) was 20.5 µM. The GI50 (MALME-3M melanoma) was 3.19 µM, the TGI (MALME-3M melanoma) was 15 µM and the GI50 (OVCAR-4 ovarian) was 2.85 µM. It also gave a TGI (OVCAR-4 ovarian) of 22.3 µM, a GI50 (NCI/ADR-RES ovarian) of 2.1 µM and a TGI (NCI/ADR-RES ovarian) of 33.9 µM. It also gave a GI50 (NCI-H23 lung) of 4.97 µM, a TGI (NCI-H23 lung) of over 100 µM and a GI50 (SF-295 CNS) of 3.69 µM. For the same molecule, the TGI (SF-295 CNS) was over 100 µM, the GI50 (BT-549 breast) was 3.82 µM and the TGI (BT-549 breast) was 39.9 µM. It also gave a GI50 (K-562 leukemia) of 2.07 µM, a TGI (K-562 leukemia) of over 100 µM and a GI50 (HOP-92 NSCLC) of 0.47 µM. The TGI (HOP-92 NSCLC) was 4.93 µM, the GI50 (M14 melanoma) was 5.59 µM and the TGI (M14 melanoma) was over 100 µM. For the same molecule, the GI50 (A549 NSCLC) was 2.69 µM, the TGI (A549 NSCLC) was 19.6 µM and the GI50 (786-0 renal) was 3.7 µM. It also gave a TGI (786-0 renal) of 38.2 µM, a GI50 (A498 renal) of 1.51 µM and a TGI (A498 renal) of 5.78 µM. For the same molecule, the GI50 (MDA-MB-231 breast) was 2.96 µM, the TGI (MDA-MB-231 breast) was 31.1 µM and the GI50 (HOP-62 NSCLC) was 5.74 µM. The TGI (HOP-62 NSCLC) was 64.5 µM, the GI50 (SF-539 CNS) was 2.12 µM and the TGI (SF-539 CNS) was 5.17 µM. It also gave a GI50 (TK-10 renal) of 6.16 µM, a TGI (TK-10 renal) of over 100 µM and a GI50 (PC-3 prostate) of 2.8 µM. The TGI (PC-3 prostate) was over 100 µM, the GI50 (OVCAR-8 ovarian) was 1.21 µM and the TGI (OVCAR-8 ovarian) was 8.31 µM. The GI50 (SR leukemia) was 1.12 µM, the TGI (SR leukemia) was 5.46 µM and the GI50 (HCT-15 colon) was 3.38 µM. It also gave a TGI (HCT-15 colon) of over 100 µM, a GI50 (CAKI-1 renal) of 2.92 µM and a TGI (CAKI-1 renal) of over 100 µM. It also gave a GI50 (CCRF-CEM leukemia) of 1.93 µM, a TGI (CCRF-CEM leukemia) of over 100 µM and a GI50 (SF-268 CNS) of 3.84 µM. The TGI (SF-268 CNS) was over 100 µM, the GI50 (SK-MEL-5 melanoma) was 0.948 µM and the TGI (SK-MEL-5 melanoma) was 3.22 µM. The GI50 (HL-60(TB) leukemia) was 2.69 µM, the TGI (HL-60(TB) leukemia) was over 100 µM and the GI50 (IGROV1 ovarian) was 2.53 µM. For the same molecule, the TGI (IGROV1 ovarian) was 6.35 µM, the GI50 (EKVX NSCLC) was 1.99 µM and the TGI (EKVX NSCLC) was over 100 µM. For the same molecule, the GI50 (LOX IMVI melanoma) was 3.84 µM, the TGI (LOX IMVI melanoma) was over 100 µM and the GI50 (SK-MEL-2 melanoma) was 2.73 µM. It also gave a TGI (SK-MEL-2 melanoma) of 8.31 µM, a GI50 (UACC-62 melanoma) of 2.52 µM and a TGI (UACC-62 melanoma) of 19.9 µM. The GI50 (UO-31 renal) was 1.84 µM, the TGI (UO-31 renal) was 7.97 µM and the GI50 (OVCAR-3 ovarian) was 2.8 µM. It also gave a TGI (OVCAR-3 ovarian) of 18.7 µM, a GI50 (ACHN renal) of 5.15 µM and a TGI (ACHN renal) of over 100 µM. The GI50 (NCI-H522 lung) was 1.36 µM, the TGI (NCI-H522 lung) was 4.57 µM and the GI50 (HCT-116 colon) was 3.8 µM. For the same molecule, the TGI (HCT-116 colon) was over 100 µM, the GI50 (NCI-H226 lung) was 4.6 µM and the TGI (NCI-H226 lung) was 54.8 µM. For the same molecule, the GI50 (UACC-257 melanoma) was 3.86 µM, the TGI (UACC-257 melanoma) was 66 µM and the GI50 (SNB-19 CNS) was 2.91 µM. For the same molecule, the TGI (SNB-19 CNS) was 13.3 µM, the GI50 (RPMI-8226 leukemia) was 1.67 µM and the TGI (RPMI-8226 leukemia) was 15.6 µM. The GI50 (T-47D breast) was 1.77 µM, the TGI (T-47D breast) was 7.65 µM and the GI50 (HT29 colon) was 3.91 µM. The TGI (HT29 colon) was over 100 µM, the GI50 (SN12C renal) was 5.29 µM and the TGI (SN12C renal) was over 100 µM. It also gave a GI50 (DU-145 prostate) of 2.99 µM, a TGI (DU-145 prostate) of 14 µM and a GI50 (U251 CNS) of 3.72 µM. The TGI (U251 CNS) was over 100 µM, the GI50 (SK-OV-3 ovarian) was 3.37 µM and the TGI (SK-OV-3 ovarian) was 10.4 µM.
